We go through 11 compounds from patent US20040023884A1, “Biologically active peptides from functional domains of bactericidal/permeability-increasing protein and uses thereof” (priority 1993, published 2004).

In brackets after ≈: the same amount, converted by molar mass. Square brackets hold non-standard residues; d marks the D form. Ends that are not written are not given here. Peptide text beside a SMILES is read from it. Phe(4-NH2) = Nc1ccc(C[C@H](N)C(=O)O)cc1; 1Nal = N[C@@H](Cc1cccc2ccccc12)C(=O)O; Cha = N[C@@H](CC1CCCCC1)C(=O)O Where only a bound is given, the exact number is not on record here.

Test [1] concerns E. coli 0111:B4 (smooth) bacteria. The test is described as follows: Radial diffusion bactericidal assay, E. coli 0111:B4. Type of test: cell-based. The note with it: for pmol added to well to achieve a 30 mm^2 bactericidal zone, E. coli O111:B4: radial diffusion, PROBIT analysis, E. coli O111:B4 (smooth).
The nature of test [2]: 3H-heparin binding assay (affinity and capacity). The note with it: for Heparin Capacity: heparin bound at saturation; for Kd: read-out: Heparin Affinity. The gist of the method: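 Peptide fragments were bound to PVDF-membrane wells and incubated with 3H-heparin in blocking buffer for 1 h at 4 °C. After washing, bound radioactivity was quantified by liquid scintillation counting, with BSA background subtracted; rBPI23 served as positive control.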

The subject of a further test is RAW 264.7 cells. The test can be described thus: LPS neutralization cellular proliferation assay, RAW 264.7 cells. Type of test: cell-based, mouse. On the procedure:
In this assay, mouse RAW 264.7 cells (ATCC Accession No. T1B71), maintained in RPMI 1640 media (GIBCO), supplemented with 10 mM HEPES buffer (pH 7.4), 2 mM L-glutamine, penicillin (100U/mL), streptomcin (100 μg/mL), 0.075% sodium bicarbonate, […] 2-mercaptoethanol and 10% fetal bovine serum (Hyclone, Inc., Logan, Utah), were first induced by incubation in the presence of 50U/mL recombinant mouse y-interferon (Genzyme, Cambridge, Mass.) for 24 h prior to assay. Induced cells were then mechanically collected and centrifuged at 500×g at 4° C. and then resuspended in 50 mL RPMI 1640 media (without supplements), re-centrifuged and again resuspended in RPMI 1640 media (without supplements). The cells were counted and their concentration adjusted to 2×10^5 cells/mL and 100 μL aliquots were added to each well of a 96-well microtitre plate. The cells were then incubated for about 15 hours with E. coli O113 LPS (Control Standard. Assoc. of Cape Cod. Woods Hole, Mass.), which was added in 100 μL/well aliquots at a concentration of […] in serum-free RPMI 1640 media (this concentration being the result of titration experiments in which LPS concentration was varied between 50 pg/mL and 100 ng/mL). This incubation was performed in the absence or presence of BPI functional domain peptides in varying concentrations between 25 ng/mL and 50 μg/mL. Recombinant human BPI was used as a positive control at a concentration of 1 μg/mL. Cell proliferation was quantitatively measured by the addition of 1 μCi/well [^3H]-thymidine 5 hours after the time of initiation of the assay. After the 15-hour incubation, labeled cells were harvested onto glass fiber filters with a cell harvester (Inotech Biosystems, EQ-384, Sample Processing and Filter Counting System, Lansing, Mich.).

The next test deals with Staphylococcus aureus. The test is described as follows: Radial diffusion bactericidal assay, Staphylococcus aureus. In kind it is cell-based. The note with it: S. aureus; for pmol added to well to achieve a 30 mm^2 bactericidal zone, S. aureus: radial diffusion, PROBIT analysis.
In another test the test system is C. albicans. The test is described as follows: Radial diffusion fungicidal assay, Candida albicans. In kind it is cell-based. The note with it: radial diffusion.
In test [3] the test system is rough mutant E. coli J5 bacteria. The test can be described thus: Radial diffusion bactericidal assay, E. coli J5. In kind it is cell-based. The note with it: for pmol added to well to achieve a 30 mm^2 bactericidal zone, E. coli J5: radial diffusion, PROBIT analysis, E. coli J5 (rough). The method, boiled down: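 Log-phase bacteria, washed in 10 mM sodium phosphate pH 7.4, were seeded at 4×10^6 CFU/mL in underlayer agarose. BPI fragments (5 or 10 μL) went into 3 mm wells for 3 h at 37° C., then overlayer agarose was added. After overnight 37° C. incubation, clearing zones were measured by micrometer.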

The next test concerns Candida albicans. In kind it is cell-based.

Consider KSKVGWLIQLFHKKKWKAQKRFLK [BPI.74], for which the “fold lower bactericidal activity than BPI.30” value in test [1] (E. coli 0111:B4) was 50 fold. In addition, the “pmol added to well to achieve a 30 mm^2 bactericidal zone, E. coli O111:B4” value (shortened to “pmol added to well … E. coli O111:B4”) in test [1] was 30,610.36 pmol. For the same compound, in test [2], the “fold increase in heparin affinity vs BPI.30” value was found to be 2 fold, the “fold reduction in heparin binding capacity vs BPI.30” value came out at 2 fold, the “Heparin Capacity” value is 207.3 ng and the Kd came out at 218 nM. In addition, in the test on RAW 264.7 cells, the “EC50 (peptide concentration at which the growth inhibitory effect of LPS was reversed by 50%)” value came out at 2.7 ± 0.3 µg/mL and the “IC50 (peptide concentration at which RAW cell growth was inhibited by 50%)” value is 18.8 ± 0.8 µg/mL. In the test with Staphylococcus aureus, the “fold lower bactericidal activity than BPI.30” value turned out to be 3.5 fold and the “pmol added to well to achieve a 30 mm^2 bactericidal zone, S. aureus” value (from here on “pmol added to well … S. aureus”) is listed as 4,290.18 pmol. In addition, in the test with C. albicans, the “C. albicans: pmol required for 30 mm^2 zone” value (shortened to “C. albicans: pmol required”) is on record as more than 2148.21 pmol. In test [3] (E. coli J5), the “fold lower bactericidal activity than BPI.30” value is 10 fold. Also, in test [3], the “pmol added to well to achieve a 30 mm^2 bactericidal zone, E. coli J5” value (from here on “pmol added to well … E. coli J5”) is 731.94 pmol.

KSKVGWLIQLFHKF [BPI.96]: the “pmol added to well … E. coli O111:B4” value in test [1] is 8,691.85 pmol. Moreover, in test [2], the “Heparin Capacity” value is listed as 203.8 ng and the Kd came to 469 nM. In the test on RAW 264.7 cells, the “EC50 (peptide concentration at which the growth inhibitory effect of LPS was reversed by 50%)” value stood at 1.6 ± 0.2 µg/mL and the “IC50 (peptide concentration at which RAW cell growth was inhibited by 50%)” value was 18.8 ± 0.8 µg/mL. In addition, the “pmol added to well … S. aureus” value in the test on Staphylococcus aureus was 91,585.37 pmol. In addition, the “C. albicans: pmol required” value with C. albicans stood at 1856.08 pmol. Also, the “pmol added to well … E. coli J5” value in test [3] stood at 378.33 pmol.

With KSKVKWLIQLFHKK [BPI.97], the “pmol added to well … E. coli O111:B4” value in test [1] is listed as “b (no detectable activity up to 5 μg/well)”. Also, in test [2], the “Heparin Capacity” value was 252.2 ng and the Kd worked out at 765 nM. Also, the “MIC C. alb” value against Candida albicans was determined as 3.13 µg/mL. Besides, the “pmol added to well … S. aureus” value with Staphylococcus aureus is given as “b (no detectable activity up to 5 μg/well)”. Also, the “C. albicans: pmol required” value with C. albicans is given as 213.22 pmol. Besides, in test [3], the “pmol added to well … E. coli J5” value stood at 295.58 pmol.

For KSKVGWLIKLFHKK [BPI.92], in test [1], the “pmol added to well … E. coli O111:B4” value is recorded as “b (no detectable activity up to 5 μg/well)”. Besides, in test [2], the “Heparin Capacity” value was 227.3 ng and the Kd amounted to 667 nM. Besides, in the test with Candida albicans, the “MIC C. alb” value turned out to be 3.13 µg/mL. The “pmol added to well … S. aureus” value with Staphylococcus aureus is listed as “b (no detectable activity up to 5 μg/well)”. The “C. albicans: pmol required” value in the test with C. albicans was 298.72 pmol. The “pmol added to well … E. coli J5” value in test [3] stood at 331.80 pmol.

As for KSKVGVLIQLFHKK [BPI.166], in test [1], the “pmol added to well … E. coli O111:B4” value is 9,586.00 pmol. Besides, in the test on Candida albicans, the “MIC C. alb” value came to 3.13 µg/mL. In addition, the “pmol added to well … S. aureus” value in the test on Staphylococcus aureus is “b (no detectable activity up to 5 μg/well)”. Moreover, the “C. albicans: pmol required” value in the test with C. albicans worked out at 170.65 pmol. In test [3], the “pmol added to well … E. coli J5” value is given as 514.00 pmol.

For the compound `CC[C@H](C)[C@H](NC(=O)[C@H](CC(C)C)NC(=O)[C@H](Cc1ccc(N)cc1)NC(=O)CNC(=O)[C@@H](NC(=O)[C@H](CCCCN)NC(=O)[C@H](CO)NC(=O)[C@@H](N)CCCCN)C(C)C)C(=O)N[C@@H](CCC(N)=O)C(=O)N[C@@H](CC(C)C)C(=O)N[C@@H](Cc1ccccc1)C(=O)N[C@@H](Cc1c[nH]cn1)C(=O)N[C@@H](CCCCN)C(=O)N[C@@H](CCCCN)C(=O)O` [BPI.133] (H-KSKVG[Phe(4-NH2)]LIQLFHKK-OH; N-terminus and C-terminus assumed), in test [1], the “pmol added to well … E. coli O111:B4” value was “b (no detectable activity up to 5 μg/well)”. In the test on Candida albicans, the “MIC C. alb” value was determined as 12.50 µg/mL (≈ 7.4 µM). Further, the “pmol added to well … S. aureus” value in the test on Staphylococcus aureus was “b (no detectable activity up to 5 μg/well)”. In addition, in the test on C. albicans, the “C. albicans: pmol required” value is reported as 284.39 pmol. The “pmol added to well … E. coli J5” value in test [3] is listed as 2,316.59 pmol.

In the case of KWKVFKKIEKKSKVGWLIQLFHKK [BPI.149], the “pmol added to well … E. coli O111:B4” value in test [1] is 391.00 pmol. In the test with Candida albicans, the “MIC C. alb” value stood at 12.50 µg/mL. Besides, the “pmol added to well … S. aureus” value in the test with Staphylococcus aureus is given as “b (no detectable activity up to 5 μg/well)”. In addition, the “C. albicans: pmol required” value with C. albicans was more than 1397.76 pmol. Also, the “pmol added to well … E. coli J5” value in test [3] came to 44.00 pmol.

On to KSKVKFLIQLFHKK [BPI.138], for which the “pmol added to well … E. coli O111:B4” value in test [1] is 995.40 pmol. Moreover, the “MIC C. alb” value against Candida albicans stood at 3.13 µg/mL. In addition, the “pmol added to well … S. aureus” value in the test with Staphylococcus aureus is given as “b (no detectable activity up to 5 μg/well)”. The “C. albicans: pmol required” value in the test with C. albicans is reported as 256.82 pmol. Further, the “pmol added to well … E. coli J5” value in test [3] is on record as 64.57 pmol.

With `CC[C@H](C)[C@H](NC(=O)[C@H](CC(C)C)NC(=O)[C@H](Cc1c[nH]c2ccccc12)NC(=O)CNC(=O)[C@@H](NC(=O)[C@H](CCCCN)NC(=O)[C@H](CO)NC(=O)[C@@H](N)CCCCN)C(C)C)C(=O)N[C@@H](CCC(N)=O)C(=O)N[C@@H](Cc1cccc2ccccc12)C(=O)N[C@@H](Cc1ccccc1)C(=O)N[C@@H](Cc1c[nH]cn1)C(=O)N[C@@H](CCCCN)C(=O)N[C@@H](CCCCN)C(=O)O` [BPI.143] (H-KSKVGWLIQ[1Nal]FHKK-OH; N-terminus and C-terminus assumed), the “pmol added to well … E. coli O111:B4” value in test [1] is reported as “b (no detectable activity up to 5 μg/well)”. The “MIC C. alb” value in the test with Candida albicans is 25.00 µg/mL (≈ 13.9 µM). Also, the “pmol added to well … S. aureus” value in the test on Staphylococcus aureus was “b (no detectable activity up to 5 μg/well)”. Besides, the “C. albicans: pmol required” value in the test with C. albicans is more than 2838.99 pmol. Besides, the “pmol added to well … E. coli J5” value in test [3] was 12,388.45 pmol.

For the compound `CC[C@H](C)[C@H](NC(=O)[C@H](CC(C)C)NC(=O)[C@H](Cc1c[nH]c2ccccc12)NC(=O)[C@H](Cc1ccc(N)cc1)NC(=O)[C@@H](NC(=O)[C@H](CCCCN)NC(=O)[C@H](CO)NC(=O)[C@@H](N)CCCCN)C(C)C)C(=O)N[C@@H](CCC(N)=O)C(=O)N[C@@H](CC(C)C)C(=O)N[C@@H](Cc1ccccc1)C(=O)N[C@@H](Cc1c[nH]cn1)C(=O)N[C@@H](CCCCN)C(=O)N[C@@H](CCCCN)C(=O)O` [BPI.134] (H-KSKV[Phe(4-NH2)]WLIQLFHKK-OH; N-terminus and C-terminus assumed), the “pmol added to well … E. coli O111:B4” value in test [1] is given as 580.11 pmol. Further, in the test with Candida albicans, the “MIC C. alb” value was 12.50 µg/mL (≈ 6.88 µM). For the same compound, the “pmol added to well … S. aureus” value with Staphylococcus aureus is on record as “b (no detectable activity up to 5 μg/well)”. Also, in the test with C. albicans, the “C. albicans: pmol required” value is listed as 1254.98 pmol. Moreover, the “pmol added to well … E. coli J5” value in test [3] was 162.50 pmol.

With `CC[C@H](C)[C@H](NC(=O)[C@H](CC(C)C)NC(=O)[C@H](CC1CCCCC1)NC(=O)CNC(=O)[C@@H](NC(=O)[C@H](CCCCN)NC(=O)[C@H](CO)NC(=O)[C@@H](N)CCCCN)C(C)C)C(=O)N[C@@H](CCC(N)=O)C(=O)N[C@@H](CC(C)C)C(=O)N[C@@H](Cc1ccccc1)C(=O)N[C@@H](Cc1c[nH]cn1)C(=O)N[C@@H](CCCCN)C(=O)N[C@@H](CCCCN)C(=O)O` [BPI.144] (H-KSKVG[Cha]LIQLFHKK-OH; N-terminus and C-terminus assumed), in test [1], the “pmol added to well … E. coli O111:B4” value was “b (no detectable activity up to 5 μg/well)”. Also, in the test with Candida albicans, the “MIC C. alb” value was found to be 12.50 µg/mL (≈ 7.44 µM). For the same compound, the “pmol added to well … S. aureus” value with Staphylococcus aureus is listed as “b (no detectable activity up to 5 μg/well)”. The “C. albicans: pmol required” value in the test on C. albicans turned out to be 695.19 pmol. In addition, the “pmol added to well … E. coli J5” value in test [3] stood at 510.02 pmol.
